Non-standard residues stand in square brackets, D forms with d. No end group written: not given here. pGlu = O=C1CC[C@@H](C(=O)O)N1
Test system: mouse epidermal mitotic rate
Test: change in mouse epidermal mitotic rate after intraperitoneal injection (Colcemid method)
Format: in vivo
Conditions: 10^-13 moles of peptide injected per mouse, first three hours after injection, versus control animals from the same cage
Method: In the following Table 1 the in vivo result (change in mouse epidermal mitotic rate) has been described as an example for one of the dipeptides. The epidermal mitotic rate was measured for the first three hours after intraperitoneal injection of the dipeptide. Mitotic rate was determined by means of "Colcemid". A reduced rate was determined as a percentage in comparison with control animals from the same cage.

[pGlu]-Gly
Decrease in mitotic rate: 40%

— patent US4868156A, “Pharmaceutical preparation containing a dipeptide with cell growth regulating effect” (Bio-Tech A/S, priority 1986, dated 1989)
